This experiment deals with T1, Low molecular weight phosphotyrosine protein phosphatase (Homo sapiens, UniProt P24666).
T1 sequence (P24666 whole entry): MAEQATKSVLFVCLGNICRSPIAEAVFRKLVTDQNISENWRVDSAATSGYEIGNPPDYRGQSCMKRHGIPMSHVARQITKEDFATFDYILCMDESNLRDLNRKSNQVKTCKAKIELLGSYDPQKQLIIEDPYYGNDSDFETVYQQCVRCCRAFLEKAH
In words: LMPTP Primary Screening Protocol. The method, then:
1. Prepare Reagents as described in section F. Recipe.2. Using LabCyte Echo, transfer 60 nL from 2 mM test compound source plate into assay plate Col. 5-48 (final concentration of test compounds is 20 μM). 60 nL of DMSO should be transferred to col. 1-4 for positive and negative control wells.3. Spin plates at 1000 rpm for 1 minute in centrifuge.4. Using the Beckman Coulter Bioraptr, add 3 μL/well of control buffer to columns 1 and 2.5. Using the Bioraptr, add 3 μL/well of enzyme solution to col. […] Using the Bioraptr, add 3 μL/well of substrate solution to col. 1-48.7. Spin plates at 1000 rpm for 1 minute in centrifuge.8. Incubate plates in the dark at room temperature for 50 minutes.9. Read plates on PerkinElmer Viewlux using a FI protocol.

The structures appear in SMILES notation. pIC50: −log10 of the molar value. Where only a bound is given, the exact number is not on record here.

The molecule `Clc1cccc(Cl)c1-c1cc(NCCCC2CCCNC2)c2ccccc2n1` (stereo not given) [US11220486, Compound I100] gave a negative logarithm of the IC50 (pIC50) below 5.30.

Consider `c1ccc(-c2cc(NCCN3CCOCC3)c3ccccc3n2)cc1` [(2-morpholin-4-ylethyl)(2-phenyl(4-quinolyl))amine], for which the pIC50 was 5.30 to 6.10.

Molecule `O=C(c1ccc(-c2cc(NCCCC3CCCNC3)c3ccccc3n2)cc1)N1CCCC1` (stereo not given) [4-{4-[(3-piperidylpropyl)amino](2-quinolyl)}phenyl pyrrolidinyl ketone] had a negative-log IC50 (pIC50) of 5.30 to 6.10.

Consider `CC(C)NC(=O)c1ccc(-c2cc(NCCCC3CCCNC3)c3ccccc3n2)cc1` (stereo not given) [N-(methylethyl)(4-{4-[(3-piperidylpropyl)amino](2-quinolyl)}phenyl)carboxamide], for which the pIC50 is 5.30 to 6.10.

As to `CCN1CCN(Cc2ccc(NC3CC(c4ccc(OC)cc4)Nc4ccccc43)cc2)CC1` (stereo not given) [US10626094, Example I206], the negative-log IC50 (pIC50) was 5.30 to 6.10.

In general, pIC50 refers to −log10 of the IC50, conventionally taken in molar units.
